Read-outs that look alike come from different tables or passages of the source.
Tests used:
A431 cells = test: PrestoBlue viability assay, A431 cells
MES-SA cells = test: PrestoBlue viability assay, MES-SA cells; conditions: for pIC50 value MES-SA: MES-SA cells, without TQ
A431-B1 cells = test: PrestoBlue viability assay, A431-B1 (A431-ABCB1) cells; conditions: for SR (A431 / A431-B1): fraction of IC50 in P-gp negative vs positive cells
MES-SA/Dx5 cells = test: PrestoBlue viability assay, MES-SA/Dx5 cells (MDR, P-gp positive); conditions: for SR_TQ: selectivity ratio MES-SA vs MES-SA/Dx5, with TQ; for SR: selectivity ratio MES-SA vs MES-SA/Dx5, without TQ; for pIC50 value MES-SA/Dx5: MES-SA/Dx5 cells, without TQ
[1] = Homo sapiens, A-431, 72 h, read-out: IC50 / µM A431, 72 h incubation
[2] = Homo sapiens, A-431, read-out: pIC50 A431, SARM figure (converted)
[3] = read-out: IC50 / µM A431, 72 h incubation
[4] = Homo sapiens, MES-SA, 72 h, read-out: IC50 / μM MES-SA, absence of TQ, 72 h incubation
[5] = Homo sapiens, MES-SA, read-out: IC50 / μM MES-SA (values in parentheses), presence of 1 μM P-gp inhibitor tariquidar (TQ)
[6] = Homo sapiens, MES-SA, read-out: pIC50 value MES-SA+TQ, MES-SA cells, with TQ (converted)
[7] = Homo sapiens, MES-SA, read-out: pIC50 value MES-SA, MES-SA cells, without TQ (converted)
[8] = 72 h, read-out: IC50 / µM A431-B1, 72 h incubation
[9] = read-out: IC50 / µM A431-B1, 72 h incubation
[10] = read-out: pIC50 A431-B1, SARM figure (converted)
[11] = Homo sapiens, MES-SA/Dx5, 72 h, read-out: IC50 / μM MES-SA/Dx5, absence of TQ, 72 h incubation
[12] = Homo sapiens, MES-SA/Dx5, read-out: IC50 / μM MES-SA/Dx5 (values in parentheses), presence of 1 μM P-gp inhibitor tariquidar (TQ)
[13] = Homo sapiens, MES-SA/Dx5, read-out: pIC50 value MES-SA/Dx5 + TQ, MES-SA/Dx5 cells, with TQ (converted)
[14] = Homo sapiens, MES-SA/Dx5, read-out: pIC50 value MES-SA/Dx5, MES-SA/Dx5 cells, without TQ (converted)
[15] = read-out: IC50 / μM MES-SA, absence of TQ, 72 h incubation
[16] = read-out: IC50 / μM MES-SA/Dx5, absence of TQ, 72 h incubation

Row | Structure (SMILES) | IC50 (MES-SA cells; [4]) [µM] | IC50 (MES-SA cells; [7]) [µM] | IC50 (MES-SA/Dx5 cells; [11]) [µM] | IC50 (MES-SA/Dx5 cells; [14]) [µM] | SR_TQ (MES-SA/Dx5 cells) | SR (MES-SA/Dx5 cells) | further results
1 | CCN(CC)Cc1ccc2cccnc2c1O [Compound 1] | 7.35 ± 1.28 | 7.24 | 1.64 ± 0.24 | 1.62 | 1.69 | 4.49 | IC50 (A431 cells; [1]): 14.8 ± 0.41 µM; IC50 (A431 cells; [2]): 13.5 µM; IC50 (A431 cells; [3]): 13.4 ± 0.18 µM; IC50 (MES-SA cells; [5]): 5.15 µM; IC50 (MES-SA cells; [6]): 5.13 µM; IC50 (A431-B1 cells; [8]): 4.51 ± 0.73 µM; IC50 (A431-B1 cells; [9]): 4.99 ± 0.52 µM; IC50 (A431-B1 cells; [10]): 5.01 µM; IC50 (MES-SA/Dx5 cells; [12]): 3.04 µM; IC50 (MES-SA/Dx5 cells; [13]): 3.02 µM
2 | Oc1c(CN2CCCC2)ccc2cccnc12 [Compound 2] | 4.64 ± 0.82 | 4.57 | 1.47 ± 0.25 | 1.45 | 1.41 | 3.16 | IC50 (A431 cells; [1]): 18.2 ± 1.02 µM; IC50 (A431 cells; [2]): 16.6 µM; IC50 (A431 cells; [3]): 17.1 ± 4.65 µM; IC50 (MES-SA cells; [5]): 3.98 µM; IC50 (MES-SA cells; [6]): 3.98 µM; IC50 (A431-B1 cells; [10]): 3.16 µM; IC50 (MES-SA/Dx5 cells; [12]): 2.82 µM; IC50 (MES-SA/Dx5 cells; [13]): 2.82 µM
3 | CCN(CC)Cc1cc(Cl)c2cccnc2c1O [Compound 5] | 2.97 ± 0.33 | 2.95 | 0.35 ± 0.06 | 0.347 | 1.78 | 8.44 | IC50 (A431 cells; [1]): 9.29 ± 1.55 µM; IC50 (A431 cells; [2]): 9.33 µM; IC50 (A431 cells; [3]): 10 ± 4.2 µM; IC50 (MES-SA cells; [5]): 3.25 µM; IC50 (MES-SA cells; [6]): 3.24 µM; IC50 (A431-B1 cells; [8]): 1.58 ± 1.11 µM; IC50 (A431-B1 cells; [9]): 1.52 ± 0.32 µM; IC50 (A431-B1 cells; [10]): 1.48 µM; IC50 (MES-SA/Dx5 cells; [12]): 1.82 µM; IC50 (MES-SA/Dx5 cells; [13]): 1.82 µM
4 | OCCN(CCO)Cc1cc(Cl)c2cccnc2c1O [Compound 6] | 31.2 ± 4.04 | 30.9 | 5.28 ± 1.28 | 5.13 | 1.64 | 5.91 | IC50 (A431 cells; [1]): 73.6 ± 0.75 µM; IC50 (MES-SA cells; [5]): 25.3 µM; IC50 (MES-SA cells; [6]): 25.1 µM; IC50 (A431-B1 cells; [8]): 20.5 ± 0.95 µM; SR (A431 / A431-B1) (A431-B1 cells): 3.60; IC50 (MES-SA/Dx5 cells; [12]): 15.4 µM; SR (MES-SA_TQ / Dx5_TQ) (values in parentheses) (MES-SA/Dx5 cells; fraction of IC50 in P-gp negative vs positive cells, presence of 1 μM TQ): 1.64
5 | O=[N+]([O-])c1cc(CN(CCO)CCO)c(O)c2ncccc12 [Compound 7] | 6.46 ± 0.49 | 6.46 | 4.33 ± 0.2 | 4.37 |  | 1.49 | IC50 (A431 cells; [1]): 9.79 ± 1.13 µM; IC50 (A431-B1 cells; [8]): 9.18 ± 0.58 µM; SR (A431 / A431-B1) (A431-B1 cells): 1.07
6 | Oc1c(CN2CCOCC2)ccc2cccnc12 [Compound 8] | 7.55 ± 0.91 | 7.41 | 4.33 ± 0.31 | 4.27 |  | 1.75 | IC50 (A431 cells; [1]): 14.5 ± 0.32 µM; IC50 (A431-B1 cells; [8]): 6.51 ± 0.65 µM; SR (A431 / A431-B1) (A431-B1 cells): 2.23
7 | CCCCOCc1cc(CN2CCN(C)CC2)c(O)c2ncccc12 [Compound 10] | 7.23 ± 0.14 | 7.24 | 2.12 ± 0.15 | 2.14 | 1.28 | 3.4 | IC50 (A431 cells; [1]): 11.2 ± 0.37 µM; IC50 (A431 cells; [2]): 11.2 µM; IC50 (A431 cells; [3]): 11.2 ± 0.83 µM; IC50 (MES-SA cells; [5]): 5 µM; IC50 (MES-SA cells; [6]): 5.01 µM; IC50 (A431-B1 cells; [8]): 4.57 ± 0.2 µM; IC50 (A431-B1 cells; [10]): 4.57 µM; IC50 (MES-SA/Dx5 cells; [12]): 3.92 µM; IC50 (MES-SA/Dx5 cells; [13]): 3.8 µM
8 | CC(=O)Nc1cc(CN2CCCCC2)c(O)c2ncccc12 [Compound 11] | 12.4 ± 1.67 | 12.3 | 19.4 ± 2.33 | 19.1 |  | 0.64 | IC50 (A431 cells; [1]): > 100 µM; IC50 (A431-B1 cells; [8]): 58.2 ± 0.65 µM
9 | Oc1c(C(c2cccnc2)N2CCCC2)ccc2cccnc12 (stereo not shown) [Compound 85] | 41 | 40.7 | 23.3 | 23.4 |  | 1.76 | IC50 (A431-B1 cells; [10]): 52.5 µM
10 | CC1CCN(C(c2ccncc2)c2ccc3cccnc3c2O)CC1 (stereo not shown) [Compound 100] |  |  |  |  | 4.37 | 2.74 | pIC50 value MES-SA (MES-SA cells): 4.78; IC50 (MES-SA cells; [15]): 17.1 ± 3.89 µM; pIC50 value MES-SA/Dx5 (MES-SA/Dx5 cells): 5.21; IC50 (MES-SA/Dx5 cells; [16]): 6.24 ± 1.17 µM
11 | Oc1c(C(c2ccccc2)N2CCOCC2)ccc2cccnc12 (stereo not shown) [Compound 102] | 21.4 ± 1.01 | 21.4 | 11.7 ± 1.15 | 11.5 |  | 1.84 | 
12 | Oc1c(C(c2ccccn2)N2CCOCC2)ccc2cccnc12 (stereo not shown) [Compound 103] | 23.6 ± 3.13 | 23.4 | 14.6 ± 2.97 | 14.1 |  | 1.62 | 
13 | Oc1c(C(c2ccncc2)N2CCOCC2)ccc2cccnc12 (stereo not shown) [Compound 104] | 15.2 ± 2.74 | 14.8 | 7.14 ± 1.26 | 7.08 | 1.45 | 2.12 | IC50 (MES-SA cells; [6]): 21.9 µM; IC50 (MES-SA/Dx5 cells; [13]): 15.1 µM
14 | Oc1c(C(c2ccccc2Cl)N2CCOCC2)ccc2cccnc12 (stereo not shown) [Compound 105] |  |  |  |  |  | 1.13 | pIC50 value MES-SA (MES-SA cells): 4.73; IC50 (MES-SA cells; [15]): 18.45 ± 0.14 µM; pIC50 value MES-SA/Dx5 (MES-SA/Dx5 cells): 4.79; IC50 (MES-SA/Dx5 cells; [16]): 16.4 ± 1.02 µM
15 | Oc1c(C(c2ccc(F)cc2)N2CCOCC2)ccc2cccnc12 (stereo not shown) [Compound 106] |  |  |  |  | 1.15 | 2.24 | pIC50 value MES-SA (MES-SA cells): 4.51; IC50 (MES-SA cells; [15]): 33.4 ± 13.2 µM; pIC50 value MES-SA/Dx5 (MES-SA/Dx5 cells): 4.86; IC50 (MES-SA/Dx5 cells; [16]): 14.9 ± 6.17 µM
16 | COc1ccc(C(c2ccc3cccnc3c2O)N2CCOCC2)cc1 (stereo not shown) [Compound 107] |  |  |  |  |  | 1.29 | pIC50 value MES-SA (MES-SA cells): 4.69; IC50 (MES-SA cells; [15]): 20.3 ± 1.7 µM; pIC50 value MES-SA/Dx5 (MES-SA/Dx5 cells): 4.81; IC50 (MES-SA/Dx5 cells; [16]): 15.8 ± 2.97 µM
17 | Oc1c(C(c2cccnc2)N2CCOCC2)cc(Cl)c2cccnc12 (stereo not shown) [Compound 109] | 51 ± 2.48 | 51.3 | 32.9 ± 7.06 | 32.4 |  | 1.55 | 
18 | Oc1c(C(c2cccs2)N2CCOCC2)cc(Cl)c2cccnc12 (stereo not shown) [Compound 110] | 7.97 ± 1.01 | 7.94 | 14 ± 0.42 | 13.8 |  | 0.57 | 
19 | CN1CCN(C(c2cccnc2)c2ccc3cccnc3c2O)CC1 (stereo not shown) [Compound 111] | 54.8 ± 3.66 | 55 | 35.9 ± 4.93 | 35.5 |  | 1.53 | 
20 | CN1CCN(C(c2ccncc2)c2ccc3cccnc3c2O)CC1 (stereo not shown) [Compound 112] | 22.1 ± 2.7 | 21.9 | 11 ± 2.12 | 10.7 | 1.58 | 2.02 | IC50 (MES-SA cells; [6]): 32.4 µM; IC50 (MES-SA/Dx5 cells; [13]): 20.4 µM
21 | CN1CCN(C(c2cccs2)c2ccc3cccnc3c2O)CC1 (stereo not shown) [Compound 113] | 12.8 ± 1.72 | 12.6 | 16.79 ± 0.08 | 16.6 |  | 0.76 | 
22 | CCN1CCN(C(c2cccnc2)c2ccc3cccnc3c2O)CC1 (stereo not shown) [Compound 115] | 20.6 ± 1.85 | 20.4 | 10.3 ± 3.54 | 9.77 | 1.05 | 1.99 | IC50 (MES-SA cells; [6]): 24 µM; IC50 (MES-SA/Dx5 cells; [13]): 22.9 µM
23 | CCN1CCN(C(c2cccs2)c2ccc3cccnc3c2O)CC1 (stereo not shown) [Compound 116] | 9.06 ± 0.23 | 9.12 | 14.2 ± 1.36 | 14.1 |  | 0.64 | 
24 | CCN1CCN(C(c2ccccn2)c2cc(Cl)c3cccnc3c2O)CC1 (stereo not shown) [Compound 117] | 28.3 ± 2.32 | 28.2 | 24.4 ± 3.58 | 24 |  | 1.16 | 
25 | CCN1CCN(C(c2cccnc2)c2cc(Cl)c3cccnc3c2O)CC1 (stereo not shown) [Compound 118] | 21.4 ± 0.84 | 21.4 | 23.1 ± 4.67 | 22.4 |  | 0.92 | 
26 | OCCN1CCN(C(c2ccccc2)c2ccc3cccnc3c2O)CC1 (stereo not shown) [Compound 119] |  |  |  |  | 1.7 | 1.53 | pIC50 value MES-SA (MES-SA cells): 4.69; IC50 (MES-SA cells; [15]): 20.7 ± 0.97 µM; pIC50 value MES-SA/Dx5 (MES-SA/Dx5 cells): 4.88; IC50 (MES-SA/Dx5 cells; [16]): 13.5 ± 2.55 µM
27 | Oc1c(C(c2ccccn2)N2CCN(c3ccccn3)CC2)ccc2cccnc12 (stereo not shown) [Compound 121] |  |  |  |  |  | 1.81 | pIC50 value MES-SA (MES-SA cells): 4.39; IC50 (MES-SA cells; [15]): 40.9 ± 2.86 µM; pIC50 value MES-SA/Dx5 (MES-SA/Dx5 cells): 4.65; IC50 (MES-SA/Dx5 cells; [16]): 22.6 ± 2.85 µM

Reference: PMC9189845, “Structure–Activity Relationships of 8-Hydroxyquinoline-Derived Mannich Bases with Tertiary Amines Targeting Multidrug-Resistant Cancer” (Journal of Medicinal Chemistry, 2022)
